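Five compound concentrations were applied to cells in 96-well plates for 48 hours; endpoints were derived by simple linear interpolation of the resulting dose-response curve. GI50 is the concentration that inhibits growth by half.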 The source made the active and inactive calls. Rule as the data show it: active = GI50 up to about 1.1 µM and inactive = higher. Bounds are passed on as bounds.

Among the test systems are CCRF-CEM; IGROV-1; SK-OV-3; HCT-116; UO-31; SN12C; OVCAR-5; UACC-62; SK-MEL-28; HL-60; SNB-19; RPMI-8226; COLO 205; HT-29; NCI-H23; HOP-62; MOLT-4; K562; OVCAR-8; RXF 393.
What all share (test): NCI-60 cell line screen, 48 h

Take `Cc1n(CC(=O)c2ccc([N+](=O)[O-])cc2)c2c([n+]1CC(C)C)C(=O)c1ccccc1C2=O`: the GI50 was < 0.0172 µM (active) in the experiment on CCRF-CEM; < 0.01 µM (active) with IGROV-1; 0.361 µM (active) in the experiment with SK-OV-3; < 0.02 µM (active) in the experiment on HCT-116; 16.1 µM (inactive) in the experiment with UO-31; < 0.01 µM (active) in the experiment with SN12C. The GI50 was < 0.0318 µM (active) in the experiment on OVCAR-5; < 0.0334 µM (active) with UACC-62; 0.0411 µM (active) in the experiment on SK-MEL-28; < 0.01 µM (active) with HL-60; < 0.015 µM (active) in the experiment with SNB-19; < 0.01 µM (active) in the experiment on RPMI-8226. In addition, the GI50 was < 0.01 µM (active) in the experiment with COLO 205; < 0.0131 µM (active) in the experiment with HT-29; < 0.01 µM (active) with NCI-H23; 0.29 µM (active) in the experiment with HOP-62; < 0.0204 µM (active) in the experiment on MOLT-4; < 0.01 µM (active) with K562. In addition, the GI50 in the experiment with OVCAR-8 is < 0.01 µM (active).

In the case of `CC1(Cl)CC2C(CC1Sc1nnnn1-c1ccccc1)C2(C)C` (stereo unspecified), the GI50 in the experiment on CCRF-CEM was 36.7 µM (inactive); in the experiment with IGROV-1, > 100 µM (inactive); with RXF 393, 48.9 µM (inactive); in the experiment on HCT-116 it was 69.8 µM (inactive); with UO-31 it was 37.5 µM (inactive); in the experiment on SN12C it was > 100 µM (inactive). The GI50 in the experiment on OVCAR-5 was > 100 µM (inactive); with UACC-62, 98.9 µM (inactive); in the experiment on SK-MEL-28 it was > 100 µM (inactive); in the experiment with HL-60, 17.9 µM (inactive); in the experiment with SNB-19 it was 83.2 µM (inactive); in the experiment on RPMI-8226, 27.8 µM (inactive). The GI50 was 83.8 µM (inactive) in the experiment on COLO 205; > 100 µM (inactive) in the experiment on HT-29; 64.3 µM (inactive) with NCI-H23; > 100 µM (inactive) with HOP-62; 30.1 µM (inactive) with MOLT-4; 32.4 µM (inactive) with K562. For the same compound, the GI50 in the experiment with OVCAR-8 is > 100 µM (inactive).

For the compound `c1ccc([P+](Cc2csnn2)(c2ccccc2)c2ccccc2)cc1`, the GI50 with CCRF-CEM was > 100 µM (inactive); in the experiment on IGROV-1, > 100 µM (inactive); in the experiment on RXF 393 it was 84.1 µM (inactive); in the experiment on SK-OV-3, > 100 µM (inactive); with HCT-116, > 100 µM (inactive); in the experiment with UO-31, > 100 µM (inactive). Besides, the GI50 was > 100 µM (inactive) in the experiment with SN12C; > 100 µM (inactive) in the experiment with OVCAR-5; 57.8 µM (inactive) with UACC-62; > 100 µM (inactive) in the experiment on SK-MEL-28; > 100 µM (inactive) in the experiment with HL-60; > 100 µM (inactive) with SNB-19. The GI50 in the experiment on RPMI-8226, in the experiment with COLO 205, in the experiment with HT-29, in the experiment with NCI-H23, with HOP-62 and with MOLT-4 was > 100 µM (inactive) in each case. In addition, the GI50 in the experiment on OVCAR-8 is > 100 µM (inactive).

With `O=NN(CC1(O)OCC(O)C(O)C1O)C(Cc1c[nH]c2ccccc12)C(=O)O` (stereo unspecified), the GI50 is > 100 µM (inactive) in the experiment with CCRF-CEM; > 100 µM (inactive) with IGROV-1; > 100 µM (inactive) in the experiment on RXF 393; > 100 µM (inactive) with SK-OV-3; > 100 µM (inactive) with HCT-116; > 10 µM (inactive) with UO-31. Moreover, the GI50 with OVCAR-5, in the experiment on UACC-62, in the experiment on SK-MEL-28, with HL-60, in the experiment with RPMI-8226 and with COLO 205 was > 100 µM (inactive) in each case. Moreover, the GI50 in the experiment with HT-29, in the experiment with NCI-H23, in the experiment on HOP-62, in the experiment on MOLT-4, in the experiment with K562 and in the experiment with OVCAR-8 was > 100 µM (inactive) in each case.

Consider `COc1cccc(NC(=O)CC(=O)NN2C(=O)/C(=C/c3ccc(N(CCC#N)CCC#N)cc3)N=C2c2cc([N+](=O)[O-])ccc2Cl)c1`, for which the GI50 in the experiment on CCRF-CEM is 0.499 µM (active); in the experiment on IGROV-1 it was > 100 µM (inactive); with RXF 393, > 100 µM (inactive); in the experiment on SK-OV-3, > 100 µM (inactive); in the experiment with HCT-116, > 100 µM (inactive); with UO-31, > 100 µM (inactive). Further, the GI50 is > 100 µM (inactive) in the experiment with SN12C; 25.5 µM (inactive) in the experiment with OVCAR-5; 64.7 µM (inactive) with UACC-62; > 100 µM (inactive) in the experiment on SK-MEL-28; > 100 µM (inactive) in the experiment on SNB-19; 30.3 µM (inactive) with RPMI-8226. For the same compound, the GI50 was > 100 µM (inactive) in the experiment on COLO 205; > 100 µM (inactive) with NCI-H23; > 100 µM (inactive) with HOP-62; 3.53 µM (inactive) in the experiment with MOLT-4; 44.3 µM (inactive) in the experiment with K562; 45.8 µM (inactive) with OVCAR-8.

Consider `c1ccc2c(NCCCCCCCCNc3cccc4ccccc34)cccc2c1`, for which the GI50 was 14.6 µM (inactive) with CCRF-CEM; 49.8 µM (inactive) in the experiment on IGROV-1; > 100 µM (inactive) with SK-OV-3; 19.8 µM (inactive) in the experiment on HCT-116; 26.2 µM (inactive) in the experiment with UO-31; 35.6 µM (inactive) in the experiment on SN12C. The GI50 in the experiment on OVCAR-5 was 46 µM (inactive); in the experiment on UACC-62 it was 20.5 µM (inactive); in the experiment on SK-MEL-28, 19.5 µM (inactive); with HL-60, 22.7 µM (inactive); with SNB-19, > 100 µM (inactive); in the experiment on RPMI-8226, > 10 µM (inactive). The GI50 with COLO 205 was 18.6 µM (inactive); in the experiment on HT-29 it was 32.4 µM (inactive); in the experiment on NCI-H23 it was 25.3 µM (inactive); in the experiment with HOP-62, > 100 µM (inactive); in the experiment on MOLT-4, 16.7 µM (inactive); in the experiment with K562, 21.5 µM (inactive). Further, the GI50 in the experiment on OVCAR-8 is 24.5 µM (inactive).

As to `Cc1nc2c(n1C)C(=O)c1nc(CBr)[nH]c(=O)c1C2=O`, the GI50 with CCRF-CEM was > 100 µM (inactive); with IGROV-1 it was > 100 µM (inactive); with RXF 393 it was > 100 µM (inactive); in the experiment on SK-OV-3, 75.7 µM (inactive); with HCT-116 it was > 100 µM (inactive); in the experiment with UO-31, > 100 µM (inactive). The GI50 is > 100 µM (inactive) with SN12C; > 100 µM (inactive) in the experiment on UACC-62; > 100 µM (inactive) with SK-MEL-28; 38.7 µM (inactive) with HL-60; > 100 µM (inactive) in the experiment on SNB-19; > 100 µM (inactive) in the experiment with RPMI-8226. Also, the GI50 in the experiment with COLO 205 was 51.5 µM (inactive); with HT-29, 39.4 µM (inactive); with NCI-H23 it was > 100 µM (inactive); in the experiment on MOLT-4, > 100 µM (inactive); in the experiment on K562, > 100 µM (inactive); with OVCAR-8, > 100 µM (inactive).

Consider `COc1ccccc1-c1cc(O)c2cc(C)cnc2n1`, for which the GI50 was 17.2 µM (inactive) with CCRF-CEM; 16.4 µM (inactive) with IGROV-1; 33.4 µM (inactive) in the experiment on RXF 393; 25.3 µM (inactive) in the experiment on SK-OV-3; 47.9 µM (inactive) with UO-31; 66.4 µM (inactive) in the experiment on SN12C. Besides, the GI50 in the experiment on OVCAR-5 was 80.5 µM (inactive); in the experiment with UACC-62, 31.8 µM (inactive); with SK-MEL-28 it was 22.6 µM (inactive); in the experiment with SNB-19 it was 71.9 µM (inactive); in the experiment on RPMI-8226 it was 30.4 µM (inactive); with COLO 205 it was 14.8 µM (inactive). Further, the GI50 in the experiment with HT-29 is 23.1 µM (inactive); in the experiment with NCI-H23, 40 µM (inactive); with HOP-62, 42.9 µM (inactive); in the experiment with MOLT-4, 31.5 µM (inactive); in the experiment with K562, 5.89 µM (inactive); in the experiment on OVCAR-8, 66.2 µM (inactive).

In the case of `Cc1ccc(SSCCCCCS(=O)O)cc1`, the GI50 in the experiment on CCRF-CEM is 4.68 µM (inactive); in the experiment with RXF 393, 15.4 µM (inactive); in the experiment with SK-OV-3, > 100 µM (inactive); in the experiment with HCT-116 it was 14.6 µM (inactive); in the experiment on UO-31, 19.9 µM (inactive); in the experiment on SN12C, 20.6 µM (inactive). In addition, the GI50 with OVCAR-5 is > 100 µM (inactive); with UACC-62, 23.5 µM (inactive); with SK-MEL-28, 46.5 µM (inactive); with HL-60 it was 16.6 µM (inactive); in the experiment on SNB-19, 35.4 µM (inactive); with RPMI-8226, 24.9 µM (inactive). In addition, the GI50 with HT-29 was 37.8 µM (inactive); with NCI-H23 it was 28.2 µM (inactive); with HOP-62, 29.9 µM (inactive); with MOLT-4, 6.34 µM (inactive); in the experiment on K562, 21.2 µM (inactive).

In the case of `CCCCSCCC(N)P(=O)(O)O` (stereo unspecified), the GI50 with CCRF-CEM, in the experiment on IGROV-1, with SK-OV-3, with HCT-116, in the experiment on UO-31 and with SN12C was > 100 µM (inactive) in each case. For the same compound, the GI50 with OVCAR-5, in the experiment with SK-MEL-28, with HL-60, in the experiment on SNB-19, in the experiment on RPMI-8226 and in the experiment on COLO 205 was > 100 µM (inactive) each time. Further, the GI50 in the experiment with HT-29, in the experiment with NCI-H23, in the experiment on HOP-62, in the experiment with MOLT-4, with K562 and in the experiment on OVCAR-8 was > 100 µM (inactive) in each case.

For `O=C(O)Cc1ccc(N2N=C(c3ccccc3)CC2=O)cc1`, the GI50 in the experiment with CCRF-CEM, in the experiment with IGROV-1, with SK-OV-3, with HCT-116, with UO-31 and with SN12C was > 100 µM (inactive) throughout. In addition, the GI50 with OVCAR-5, in the experiment on UACC-62, in the experiment on SK-MEL-28, with HL-60, in the experiment with SNB-19 and in the experiment on COLO 205 was > 100 µM (inactive) each time. Further, the GI50 with HT-29, in the experiment with NCI-H23, in the experiment on HOP-62, in the experiment with MOLT-4, in the experiment on K562 and in the experiment on OVCAR-8 was > 100 µM (inactive) throughout.

Values taken from ChEMBL document CHEMBL1201862, “PubChem BioAssay data set” (2004).
